Test [1] deals with T-type over L-type channels. The following applies: cited from earlier work.
A further test addresses T1, Human Cav2.2 channels (Homo sapiens, UniProt Q00975).
T1 construct: expressed in transfected cells
The test is described as follows: Block of Cav2.2 (N-type) channels expressed in HEK293 cells. The class given is cell-based. The following applies: for inhibition at 10 µM / inhibition at 30 µM: HEK293; for inhibition at 10 µM: read-out: Cav 2.2 % Inh @ 10 μM; for inhibition at 30 µM: read-out: Cav 2.2 % Inh @ 30 μM; for IC50: read-out: Cav 2.2 IC50. In outline: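 HEK293 cells co-expressing Cav2.2 with α2δ, β subunits and Kir2.3. Fluo-4 calcium influx: 30 min compound incubation at 25 °C in 4 mM (resting) or 12, 25 or 30 mM K+ (open/inactivated), then 70 mM K+ depolarisation. IonWorks HT barium-current patch clamp: 5 min compound, 2 Hz train of twenty 25 ms steps to +20 mV, first versus 20th pulse block.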

The target of test [2] is T2, Cav3.1 (T-type channel alpha-1G) (Homo sapiens, UniProt O43497).
T2 construct: expressed in transfected cells; host or cells: HEK 293
The test is described as follows: T-type calcium channel voltage-clamp assay, Cav3.1. The class given is cell-based. The following applies: read-out: Cav 3.1 IC50. How it is done: (§1) The T-type calcium channel blocking activity of the compounds of this invention may be readily determined using the methodology well known in the art described by Xia, et al., Assay and Drug Development Tech., 1 (5), 637-645 (2003).
(§2) In a typical experiment ion channel function from HEK 293 cells expressing the T-type channel alpha-1G, H, or I (CaV 3.1, 3.2, 3.3) is recorded to determine the activity of compounds in blocking the calcium current mediated by the T-type channel alpha-1G, H, or I (CaV 3.1, 3.2, 3.3). In this T-type calcium (Ca^2+) antagonist voltage-clamp assay calcium currents are elicited from the resting state of the human alpha-1G, H, or I (CaV 3.1, 3.2, 3.3) calcium channel as follows. Sequence information for T-type (Low-voltage activated) calcium channels are fully disclosed in e.g., U.S. Pat. No. 5,618,720, U.S. Pat. No. 5,686,241, U.S. Pat. No. 5,710,250,U.S. Pat. No. 5,726,035, U.S. Pat. No. 5,792,846, U.S. Pat. No. 5,846,757, U.S. Pat. No. 5,851,824, U.S. Pat. No. 5,874,236, U.S. Pat. No. 5,876,958, U.S. Pat. No. 6,013,474, U.S. Pat. No. 6,057,114, U.S. Pat. No. 6,096,514, WO 99/28342, and J. Neuroscience, 19 (6):1912-1921 (1999). Cells expressing the t-type channels were grown in H3D5 growth media which is comprised DMEM, 6% bovine calf serum (HYCLONE), 30 micromolar Verapamil, 200 microgram/ml Hygromycin B, 1× Penicillin/Streptomycin. Glass pipettes are pulled to a tip diameter of 1-2 micrometer on a pipette puller. The pipettes are filled with the intracellular solution and a chloridized silver wire is inserted along its length, which is then connected to the headstage of the voltage-clamp amplifier. Trypsinization buffer was 0.05% Trypsin, 0.53 mM EDTA. The extracellular recording solution consists of (mM): 130 mM NaCl, 4 mM KCl, 1 mM MgCl2, 2 mM CaCl2, 10 mM HEPES, 30 Glucose, pH 7.4. The internal solution consists of (mM): 135 mM CsMeSO4, 1 MgCl2, 10 CsCl, 5 EGTA, 10 HEPES, pH 7.4, or 135 mM CsCl, 2 MgCl2, 3 MgATP, 2 Na2ATP, 1 Na2GTP, 5 EGTA, 10 HEPES, pH 7.4. Upon insertion of the pipette tip into the bath, the series resistance is noted (acceptable range is between 1-4 megaohm). The junction potential between the pipette and bath solutions is zeroed on the amplifier. The cell is then patched, the patch broken, and, after compensation for series resistance (>=80%), the voltage protocol is applied while recording the whole cell Ca2+ current response. Voltage protocols: (1) −80 mV holding potential every 20 seconds pulse to −20 mV for 40 msec duration; the effectiveness of the drug in inhibiting the current mediated by the channel is measured directly from measuring the reduction in peak current amplitude initiated by the voltage shift from −80 mV to −20 mV; (2). −100 mV holding potential every 15 seconds pulse to −20 mV for 40 msec duration; the effectiveness of the drug in inhibiting the current mediated by the channel is measured directly from measuring the reduction in peak current amplitude initiated by the shift in potential from −100 mV to […]. The difference in block at the two holding potentials was used to determine the effect of drug at differing levels of inactivation induced by the level of resting state potential of the cells. After obtaining control baseline calcium currents, extracellular solutions containing increasing concentrations of a test compound are washed on. Once steady state inhibition at a given compound concentration is reached, a higher concentration of compound is applied. % inhibition of the peak inward control Ca2+ current during the depolarizing step to −20 mV is plotted as a function of compound concentration.

The target of test [3] is T3, Cav3.2 (T-type channel alpha-1H) (Homo sapiens, UniProt O95180).
T3 construct: expressed in transfected cells; host or cells: HEK 293
Nature of the test: T-type calcium channel voltage-clamp assay, Cav3.2. It is filed as cell-based. The following applies: read-out: Cav 3.2 IC50. How it is done:
as §1, §2

Data on eight compounds can be found in patent US20090270413A1, “DI-T-BUTYLPHENYL PIPERAZINES AS CALCIUM CHANNEL BLOCKERS” (priority 2008, published 2009).

T1 sequence (Q00975 whole entry): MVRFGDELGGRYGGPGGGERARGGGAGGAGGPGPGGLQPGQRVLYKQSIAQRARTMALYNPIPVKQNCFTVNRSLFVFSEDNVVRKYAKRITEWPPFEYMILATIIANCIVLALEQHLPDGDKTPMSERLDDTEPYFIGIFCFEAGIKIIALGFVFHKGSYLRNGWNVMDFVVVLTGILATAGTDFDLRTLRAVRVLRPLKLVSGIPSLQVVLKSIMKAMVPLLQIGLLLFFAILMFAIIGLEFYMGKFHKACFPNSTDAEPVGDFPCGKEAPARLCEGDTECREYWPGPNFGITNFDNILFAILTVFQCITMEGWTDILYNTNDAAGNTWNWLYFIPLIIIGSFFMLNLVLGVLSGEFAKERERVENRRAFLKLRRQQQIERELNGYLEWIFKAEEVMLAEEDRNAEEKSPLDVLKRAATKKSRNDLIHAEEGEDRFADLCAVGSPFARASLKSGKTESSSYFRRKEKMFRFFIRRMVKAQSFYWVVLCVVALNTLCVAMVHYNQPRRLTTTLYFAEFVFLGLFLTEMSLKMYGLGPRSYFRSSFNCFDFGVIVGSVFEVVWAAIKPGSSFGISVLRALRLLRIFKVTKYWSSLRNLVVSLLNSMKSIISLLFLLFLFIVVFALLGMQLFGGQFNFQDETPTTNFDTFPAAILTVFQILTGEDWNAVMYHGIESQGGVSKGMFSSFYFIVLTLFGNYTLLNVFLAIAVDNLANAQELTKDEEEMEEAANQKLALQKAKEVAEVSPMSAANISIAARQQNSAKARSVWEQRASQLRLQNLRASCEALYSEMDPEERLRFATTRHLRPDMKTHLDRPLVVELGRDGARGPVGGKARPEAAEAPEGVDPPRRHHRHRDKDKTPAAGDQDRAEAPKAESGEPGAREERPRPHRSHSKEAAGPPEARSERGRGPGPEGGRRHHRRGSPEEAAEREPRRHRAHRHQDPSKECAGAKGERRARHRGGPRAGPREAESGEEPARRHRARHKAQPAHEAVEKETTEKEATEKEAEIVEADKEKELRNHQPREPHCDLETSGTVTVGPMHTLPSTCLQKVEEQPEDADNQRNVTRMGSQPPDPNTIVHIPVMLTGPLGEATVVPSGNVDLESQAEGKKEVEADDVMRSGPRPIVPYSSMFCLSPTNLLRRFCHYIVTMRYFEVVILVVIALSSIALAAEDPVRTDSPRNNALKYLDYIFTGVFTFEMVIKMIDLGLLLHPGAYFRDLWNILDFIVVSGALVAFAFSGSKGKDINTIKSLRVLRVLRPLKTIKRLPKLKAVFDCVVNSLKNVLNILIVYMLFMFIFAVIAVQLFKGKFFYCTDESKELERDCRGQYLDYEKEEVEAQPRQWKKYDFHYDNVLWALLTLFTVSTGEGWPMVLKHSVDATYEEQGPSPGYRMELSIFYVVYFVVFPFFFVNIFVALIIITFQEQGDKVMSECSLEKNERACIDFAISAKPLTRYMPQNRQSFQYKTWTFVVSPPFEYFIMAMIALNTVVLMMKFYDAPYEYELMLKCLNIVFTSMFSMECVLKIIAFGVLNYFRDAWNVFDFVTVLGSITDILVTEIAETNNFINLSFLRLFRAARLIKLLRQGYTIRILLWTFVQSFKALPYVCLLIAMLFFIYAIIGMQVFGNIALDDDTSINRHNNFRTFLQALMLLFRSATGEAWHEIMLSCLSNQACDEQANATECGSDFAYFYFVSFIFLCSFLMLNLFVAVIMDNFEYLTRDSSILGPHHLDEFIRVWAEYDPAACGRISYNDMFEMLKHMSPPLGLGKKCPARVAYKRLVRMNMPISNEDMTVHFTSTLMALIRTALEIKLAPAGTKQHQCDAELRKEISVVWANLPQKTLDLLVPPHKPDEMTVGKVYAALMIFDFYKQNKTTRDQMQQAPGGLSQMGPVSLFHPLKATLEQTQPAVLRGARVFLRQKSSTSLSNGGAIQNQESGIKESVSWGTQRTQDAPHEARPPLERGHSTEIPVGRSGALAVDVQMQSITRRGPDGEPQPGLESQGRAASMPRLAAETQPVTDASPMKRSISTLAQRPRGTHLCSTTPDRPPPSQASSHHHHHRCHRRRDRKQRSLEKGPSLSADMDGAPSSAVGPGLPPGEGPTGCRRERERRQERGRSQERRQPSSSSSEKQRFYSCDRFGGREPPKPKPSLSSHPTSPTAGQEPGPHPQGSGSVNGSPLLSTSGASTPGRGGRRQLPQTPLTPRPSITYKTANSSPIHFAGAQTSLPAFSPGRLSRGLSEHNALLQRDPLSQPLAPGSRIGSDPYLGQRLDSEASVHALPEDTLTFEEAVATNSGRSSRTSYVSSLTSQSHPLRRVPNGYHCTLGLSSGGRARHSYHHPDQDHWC
T1 sequence (P54289 25-956 partner limits assumed): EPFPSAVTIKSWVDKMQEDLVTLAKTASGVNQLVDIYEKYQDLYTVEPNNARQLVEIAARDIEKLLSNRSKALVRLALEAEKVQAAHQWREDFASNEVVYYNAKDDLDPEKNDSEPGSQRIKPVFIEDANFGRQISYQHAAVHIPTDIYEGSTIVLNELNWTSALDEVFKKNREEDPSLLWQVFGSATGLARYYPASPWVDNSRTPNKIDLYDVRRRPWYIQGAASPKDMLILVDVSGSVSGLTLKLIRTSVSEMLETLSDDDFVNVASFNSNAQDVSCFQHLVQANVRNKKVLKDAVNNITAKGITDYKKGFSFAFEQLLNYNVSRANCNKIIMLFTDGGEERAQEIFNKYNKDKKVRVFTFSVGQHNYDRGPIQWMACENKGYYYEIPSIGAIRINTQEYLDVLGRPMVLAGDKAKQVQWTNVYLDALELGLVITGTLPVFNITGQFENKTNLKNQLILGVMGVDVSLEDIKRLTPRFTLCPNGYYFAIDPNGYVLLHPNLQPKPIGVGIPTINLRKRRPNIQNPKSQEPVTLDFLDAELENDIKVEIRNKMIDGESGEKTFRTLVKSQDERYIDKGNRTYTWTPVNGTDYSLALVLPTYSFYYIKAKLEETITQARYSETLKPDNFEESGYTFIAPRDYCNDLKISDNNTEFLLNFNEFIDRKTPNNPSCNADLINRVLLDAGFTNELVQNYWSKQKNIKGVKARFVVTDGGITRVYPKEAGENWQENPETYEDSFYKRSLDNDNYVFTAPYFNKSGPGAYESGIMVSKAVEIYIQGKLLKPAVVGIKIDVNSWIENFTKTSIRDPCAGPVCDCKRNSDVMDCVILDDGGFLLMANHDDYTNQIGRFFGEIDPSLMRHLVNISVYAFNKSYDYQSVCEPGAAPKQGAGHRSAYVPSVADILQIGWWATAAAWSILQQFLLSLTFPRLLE
T1 sequence (P54289 957-1103 partner limits assumed): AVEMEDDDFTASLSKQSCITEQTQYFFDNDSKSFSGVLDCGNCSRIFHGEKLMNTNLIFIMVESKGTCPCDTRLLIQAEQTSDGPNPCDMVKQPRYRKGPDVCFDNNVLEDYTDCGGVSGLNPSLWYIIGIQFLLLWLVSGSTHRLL
T1 sequence (P54284 whole entry partner): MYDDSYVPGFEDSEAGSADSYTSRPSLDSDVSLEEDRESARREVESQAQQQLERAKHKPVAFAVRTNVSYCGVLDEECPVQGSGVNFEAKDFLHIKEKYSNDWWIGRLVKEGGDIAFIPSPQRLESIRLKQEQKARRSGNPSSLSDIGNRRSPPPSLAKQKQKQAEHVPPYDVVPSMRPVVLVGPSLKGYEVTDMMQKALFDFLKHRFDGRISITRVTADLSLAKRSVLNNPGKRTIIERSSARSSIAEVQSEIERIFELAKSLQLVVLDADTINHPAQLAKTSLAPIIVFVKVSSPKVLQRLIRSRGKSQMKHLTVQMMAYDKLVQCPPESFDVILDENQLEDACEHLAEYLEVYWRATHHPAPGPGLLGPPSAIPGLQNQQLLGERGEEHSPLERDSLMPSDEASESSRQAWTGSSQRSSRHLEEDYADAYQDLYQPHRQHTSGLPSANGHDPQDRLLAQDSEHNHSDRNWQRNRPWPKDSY

Turning to `COCC(=O)O[C@]1(CCN(C)CCCc2nc3ccccc3[nH]2)CCc2cc(F)ccc2[C@@H]1C(C)C` [Mibefradil], the “selective for T-type over L-type channels” value in test [1] was 10-30 fold.
With `CC(C)(C)c1cc(N2CCN(C(=O)c3ccc(OCC(F)(F)F)nc3)CC2)cc(C(C)(C)C)c1` [Compound 47, (4-(3,5-di-tert-butylphenyol)piperazin-1-yl)(6-(2,2,2-trifluoroethoxy)pyridin-3-yl)methanone], at Human Cav2.2 channels, the inhibition at 10 µM came to 101%; the inhibition at 30 µM turned out to be 104%; the IC50 (in general, the concentration that inhibits the measured activity by half) came to 1.48 µM. Further, the IC50 in test [2] was 0.49 µM. Besides, the 50% inhibitory concentration (IC50) in test [3] came to 0.8 µM.
For `Cc1ccsc1C(=O)N1CCN(c2cc(C(C)(C)C)cc(C(C)(C)C)c2)CC1` [Compound 29, (4-(3,5-di-tert-butylphenyl)piperazin-1-yl)(3-methylthiophen-2-yl)methanone], in that order: 88%, 101%, 2 µM, 0.84 µM and 1.01 µM.
For `CCOc1ncccc1C(=O)N1CCN(c2cc(C(C)(C)C)cc(C(C)(C)C)c2)CC1` [Compound 38, (4-(3,5-di-tert-butylphenyl)piperazin-1-yl)(2-ethoxypyridin-3-yl)methanone], in that order: 107%, 98%, 0.85 µM, 1.49 µM and 2.23 µM.
For `Cc1ccc(C(=O)N2CCN(c3cc(C(C)(C)C)cc(C(C)(C)C)c3)CC2)s1` [Compound 28, (4-(3,5-di-tert-butylphenyl)piperazin-1-yl)(5-methylthiophen-2-yl)methanone], in that order: 87%, 101%, 2.4 µM, 0.8 µM and 0.96 µM.
`Cc1nc(C)c(C(=O)N2CCN(c3cc(C(C)(C)C)cc(C(C)(C)C)c3)CC2)s1` [Compound 32, (4-(3,5-di-tert-butylphenyl)piperazin-1-yl)(2,4-dimethylthiazol-5-yl)methanone]: at Human Cav2.2 channels, the inhibition at 10 µM was found to be 98%, the inhibition at 30 µM worked out at 98% and the IC50 is 0.78 µM. In addition, the IC50 in test [2] was 1.09 µM. For the same compound, in test [3], the IC50 came out at 1.15 µM.
Regarding `CC(C)(C)C(=O)Nc1cc(C(=O)N2CCN(c3cc(C(C)(C)C)cc(C(C)(C)C)c3)CC2)ccn1` [Compound 22, N-(4-(4-(3,5-di-tert-butylphenyl)piperazine-1-carbonyl)pyridin-2-yl)pivalamide], the inhibition at 10 µM on Human Cav2.2 channels was 99%. Besides, on Human Cav2.2 channels, the inhibition at 30 µM amounted to 103%. In addition, the IC50 at Human Cav2.2 channels was 0.99 µM; in test [2], 0.05 µM; in test [3] it was 0.07 µM.
For `CC(C)(C)c1cc(N2CCN(C(=O)c3ccc(F)cc3)CC2)cc(C(C)(C)C)c1` [Compound 4, (4-(3,5-di-tert-butylphenyl)piperazin-1-yl)(4-fluorophenyl)methanone], in that order: 92%, 97%, 2.21 µM, 0.89 µM and 0.79 µM.
